# Assays:
# HDAC = system: T1, HDAC; assay: In vitro HDAC-inhibition assay (Fluor de Lys fluorescent substrate); type: biochemical; settings: for IC50: in vitro HDAC enzyme source; for % Max Inhibition (in vitro): maximum inhibition
# T1 construct: in vitro IC50; other: in vitro HDAC enzyme source
# Description: In vitro HDAC-inhibition Assay:
# This assay measures a compound's ability to inhibit acetyl-lysine deacetylation in vitro and was used as both a primary screening method as well as for IC50 determinations of confirmed inhibitors. The assay is performed in vitro using an HDAC enzyme source (e.g. partially purified nuclear extract or immunopurified HDAC complexes) and a proprietary fluorescent substrate/developer system (HDAC Quantizyme Fluor de Lys Fluorescent Activity Assay, BIOMOL). The assay is run in 1,536-well Greiner white-bottom plates using the following volumes and order of addition:
# Step 1: Enzyme (2.5 ul) source added to plate (from refrigerated container) • Step 2: Compounds (50 nl) added with pin transfer device • Step 3: Fluor de Lys (2.5 ul) substrate added, incubate at RT, 30 minutes • Step 4: Developer (5 ul) solution is added (containing TSA), to stop reaction • Step 5: Plate Reader—data collection
# The deacetylated fluorophore is excited with 360 nm light and the emitted light (460 nm) is detected on an automated fluorometric plate reader (Aquest, Molecular Devices).
# [1] = system: HDAC in cells (cellular histone acetylation levels); assay: Cellular histone hyperacetylation assay (cytoblot), cellular HDAC inhibition; type: cell-based; settings: for IC50 / Cellular IC50: "active" = inhibitory activity but cellular IC50 could not be determined; for Emax: read-out: % Max. Inhibition (cellular)
# Description: Cellular Histone Hyperacetylation Assays:
# These two secondary assays evaluates a compound's ability to inhibit HDAC in cells by measuring cellular histone acetylation levels. The cytoblot facilitates quantitative EC50 information for cellular HDAC inhibition. Transformed cell lines (e.g. HeLa, A549, MCF-7) are cultured under standard media and culture conditions prior to plating.
# Cells (approx. 2,500/well) are allowed to adhere 10-24 hours to wells of a 384-well Greiner PS assay plate in media containing 1-5% serum. Cells are treated with appropriate compound and specific concentrations for 0 to 24 hours. Cells are washed once with PBS (60 ul) and then fixed (95% ethanol, 5% acetic acid or 2% PFA) for 1 minute at RT (30 ul). Cells are blocked with 1% BSA for 1 hour and washed and stained with antibody (e.g. anti-Acetylated Histone H3, Upstate Biotechnology), followed by washing and incubation with an appropriate secondary antibody conjugated to HRP or fluorophore. For luminescence assays, signal is generated using Luminol substrate (Santa Cruz Biotechnology) and detected using an Aquest plate reader (Molecular Devices).
SMILES,IC50 (HDAC),IC50 [1],Cellular IC50 [1],% Max Inhibition (in vitro) (HDAC),Emax ([1]; maximum inhibition),% Max. Inhibition (cellular) ([1]; maximum inhibition)
"O=C(CSC1=NCCS1)c1ccccc1 [Compound 14, 2-(4,5-Dihydro-thiazol-2-ylsulfanyl)-1-phenyl-ethanone]",> 10 µM,> 10 µM,–,>75%,< 50%,–
"O=C(CS)c1ccc(Br)cc1 [Compound 41, 1-(4-Bromo-phenyl)-2-mercapto-ethanone]",< 1 µM,–,active,>75%,> 75%,–
COc1ccc(C(=O)CSC#N)cc1OC [Compound 12],1 to 10 µM,–,–,>75%,–,–
"Nc1ccccc1NC(=O)c1ccc(CNC(=O)OCc2cccnc2)cc1 [MS-275, reference compound]",> 10 µM,1 to 10 µM,–,>50%,–,>75%
O=C(CSC1=NCCS1)c1ccc(Cl)c(Cl)c1 [Compound 15],1 to 10 µM,1 to 10 µM,–,>75%,> 75%,–
CC(=O)Nc1ccc(C(=O)CSC#N)cc1 [Compound 7],< 1 µM,1 to 10 µM,–,>75%,> 75%,–
N#CSCC(=O)c1ccc(N2CCCC2)cc1 [Compound 11],1 to 10 µM,–,active,>50%,–,–
"C[C@@H]1NC(=O)[C@H]2CCCN2C(=O)[C@H](CCCCCC(=O)[C@@H]2CO2)NC(=O)[C@@H](C)NC1=O [HC-toxin, reference compound]",< 1 µM,–,–,>75%,–,–
O=C1CSC(SCC(=O)c2ccccc2)=N1 [Compound 32],< 1 µM,> 10 µM,–,>75%,> 50%,–
CCN(CC)c1ccc(C(=O)CSC#N)cc1 [Compound 13],1 to 10 µM,–,active,>75%,–,–
O=C(CSC1=NCCS1)c1cccc(Br)c1 [Compound 16],1 to 10 µM,–,active,>75%,–,–
COc1cccc(C(=O)CS)c1 [Compound 42],1 to 10 µM,> 10 µM,–,>75%,> 75%,–
O=C(CSC1=NCCS1)c1ccc(Cl)cc1 [Compound 17],> 10 µM,–,active,>75%,–,–
COc1ccc(C(=O)CSC2=NCCS2)cc1OC [Compound 25],> 10 µM,–,active,<50%,–,–
O=C(CSC1=NCCS1)c1ccc2c(c1)OCCO2 [Compound 19],> 10 µM,1 to 10 µM,–,>75%,> 50%,–
N#CSCC(=O)c1ccc(Cl)cc1 [Compound 6],< 1 µM,1 to 10 µM,–,>75%,> 75%,–
"N#CSCC(=O)c1ccccc1 [Compound 1, 1-Phenyl-2-thiocyanato-ethanone]",1 to 10 µM,–,active,>75%,–,–
CC(=O)Nc1ccc(C(=O)CSC2=NCCS2)cc1 [Compound 21],> 10 µM,1 to 10 µM,–,>75%,> 75%,–
COc1ccc(C(=O)CSC2=NCCS2)cc1 [Compound 23],> 10 µM,–,active,>50%,–,–

# Further lines, with some results ahead:
IC50 (HDAC),IC50 [1],Cellular IC50 [1],SMILES,% Max Inhibition (in vitro) (HDAC),Emax ([1]; maximum inhibition),% Max. Inhibition (cellular) ([1]; maximum inhibition)
1 to 10 µM,1 to 10 µM,–,"O=C(CSC1=NCCS1)c1ccc(NS(=O)(=O)c2ccc(OC(F)(F)F)cc2)cc1 [Compound 27, N-{4-[2-(4,5-Dihydro-thiazol-2-ylsulfanyl)-acetyl]-phenyl}-4-trifluoromethoxy-benzenesulfonamide]",>75%,> 75%,–
< 1 µM,< 1 µM,–,"CC(=O)SCC(=O)c1ccc(NS(=O)(=O)c2ccc(OC(F)(F)F)cc2)cc1 [Compound 48, Thioacetic acid S-{2-oxo-2-[4-(4-trifluoromethoxy-benzenesulfonylamino)-phenyl]-ethyl}ester]",>75%,> 75%,–
> 10 µM,1 to 10 µM,–,CCN(CC)c1ccc(C(=O)CSC2=NCCS2)cc1 [Compound 22],<50%,< 50%,–
> 10 µM,–,active,O=C(CSC1=NCCS1)c1ccc(N2CCCC2)cc1 [Compound 24],>50%,–,–
< 1 µM,–,active,N#CSCC(=O)c1ccc2c(c1)OCCO2 [Compound 5],>75%,–,–
< 1 µM,1 to 10 µM,–,N#CSCC(=O)c1ccc(Cl)c(Cl)c1 [Compound 3],>75%,104%,–
< 1 µM,< 1 µM,–,"O=C(CSSCC(=O)c1ccc(NS(=O)(=O)c2ccc(OC(F)(F)F)cc2)cc1)c1ccc(NS(=O)(=O)c2ccc(OC(F)(F)F)cc2)cc1 [Compound 47, Thioacetic acid S-{2-oxo-2-[4-(4-trifluoromethoxy-benzenesulfonylamino)-phenyl]-ethyl}disulfide]",>75%,> 75%,–
> 10 µM,–,active,COc1cccc(C(=O)CSC2=NCCS2)c1 [Compound 20],>75%,–,–
< 1 µM,–,active,COc1cccc(C(=O)CSC#N)c1 [Compound 9],>75%,–,–
< 1 µM,–,active,N#CSCC(=O)c1cccc(Br)c1 [Compound 8],>75%,–,–
< 1 µM,1 to 10 µM,–,"O=C1CSC(SCC(=O)c2ccc3c(c2)OCCO3)=N1 [Compound 34, 2-[2-(2,3-Dihydro-benzo[1,4]dioxin-6-yl)-2-oxo-ethylsulfanyl]-thiazol-4-one]",>75%,> 75%,–
> 10 µM,–,active,O=C(CSC1=NCCS1)c1ccc(Br)cc1 [Compound 18],>75%,–,–
1 to 10 µM,–,active,COc1ccc(C(=O)CSC#N)cc1 [Compound 10],>75%,–,–
1 to 10 µM,1 to 10 µM,–,COc1ccc(S(=O)(=O)Nc2cccc(C(=O)CSC3=NCCS3)c2)cc1OC [Compound 30],>75%,> 75%,–
1 to 10 µM,1 to 10 µM,–,O=C(CSC1=NCCS1)c1cccc(NS(=O)(=O)c2ccc(OC(F)(F)F)cc2)c1 [Compound 31],>75%,> 75%,–
< 1 µM,1 to 10 µM,–,Cc1cc(C(=O)CSC#N)ccc1Cl [Compound 4],>75%,> 75%,–
< 1 µM,–,active,N#CSCC(=O)c1ccc(F)c(F)c1 [Compound 2],>75%,–,–

# Reference: patent publication US7271195B2, “Carbonyl compounds as inhibitors of histone deacetylase for the treatment of disease” (Kalypsys, Inc., priority 2003, dated 2007)
